Measured values taken from PubChem BioAssay AID248 (DTP/NCI, 2004).
Toxic doses and inconclusive results are not listed. Rule as the data show it: active = T/C of 150% or more; inactive = T/C below 125%.

Test system: L1210 leukemia ip in BDF1 mice, survival T/C
Assay: NCI In Vivo Anticancer Drug Screen. Data for tumor model L1210 Leukemia (intraperitoneal) in B6D2F1 (BDF1) mice
Conditions: endpoint: mean survival time, higher = longer survival
In short: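 Value reflects the ratio of survival in compound-treated mice to survival in vehicle-treated controls, with both groups carrying the same transplanted tumor.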

Measured: T/C

Cc1cccc(OCCOC(=O)Nc2ccccc2F)c1
inactive: dose: 100.0 mg/kg/injection, schedule: Q01DX009 (ip), vehicle: Klucel (hydroxypropylcellulose) (HPC) 103 % of control | dose: 200.0 mg/kg/injection, schedule: Q01DX009 (ip), vehicle: Klucel (hydroxypropylcellulose) (HPC) 93 % of control | dose: 400.0 mg/kg/injection, schedule: Q01DX009 (ip), vehicle: Klucel (hydroxypropylcellulose) (HPC) 106 % of control

CCSC(=S)SCC(=O)O
inactive: dose: 100.0 mg/kg/injection, schedule: Q04DX003 (ip), vehicle: saline with Tween-80 107 % of control | dose: 200.0 mg/kg/injection, schedule: Q04DX003 (ip), vehicle: saline with Tween-80 92 % of control

O=C(O)C(O)c1ccc([N+](=O)[O-])cc1 (stereo unspecified)
inactive: dose: 75.0 mg/kg/injection, schedule: Q01DX001 (ip), vehicle: saline 92 % of control | dose: 100.0 mg/kg/injection, schedule: Q04DX002 (ip), vehicle: saline with Tween-80 95 % of control | dose: 150.0 mg/kg/injection, schedule: Q01DX001 (ip), vehicle: saline 94 % of control | dose: 200.0 mg/kg/injection, schedule: Q04DX002 (ip), vehicle: saline with Tween-80 103 % of control | dose: 300.0 mg/kg/injection, schedule: Q01DX001 (ip), vehicle: saline 90 % of control | dose: 400.0 mg/kg/injection, schedule: Q04DX002 (ip), vehicle: saline with Tween-80 100 % of control
